The values that follow come from PubChem BioAssay AID1996.

SMILES strings stand for the structures. ≈ marks a conversion by molar mass, not a printed value. Non-standard residues stand in square brackets, D forms with d. Residues, ends and D or L forms follow the SMILES beside them. ξ: configuration not given here. *: point of attachment. Cbz = O=C(OCc1ccccc1)*; ξV = CC(C)C(N)C(=O)O

The conditions of this data set: buffer; pH 7.4; 200.0 µM.
The kinetic solubility is solubility judged after dilution from a stock solution rather than from solid. Compound `CC(=O)CC(C)(C)Nc1nc2ccc([N+](=O)[O-])cc2o1` came in with a solubility (kinetic) greater than 41.6 µg/mL.

For the compound `CN(C(=O)c1cc(-c2ccc3c(c2)OCO3)on1)c1ccccc1`, the solubility (kinetic) was 6.8 µg/mL (≈ 21.1 µM).

With `Cc1cccc(Oc2ccc(NC(=O)c3ccccc3C(=O)O)cc2)c1`, the solubility (kinetic) was greater than 52.1 µg/mL.

Turning to `Cc1cc(C(=O)N(C)Cc2c(F)cccc2Cl)c2ccccc2n1`, the kinetic solubility is 42.4 µg/mL (≈ 124 µM).

Compound `COc1cc(OC)cc(C(=O)NCCc2cnc[nH]2)c1` had a kinetic solubility greater than 41.3 µg/mL.

In the case of `CCOC(=O)Cc1csc(NC(=O)c2ccc(C)cc2)n1`, the kinetic solubility came out at 45.6 µg/mL (≈ 150 µM).

Take `Cl.c1ccc([C@H]2CN3CCSC3=N2)cc1`: the kinetic solubility was greater than 36.1 µg/mL.

For `COc1ccccc1CC(=O)Nc1ncc(C)s1`, the solubility (kinetic) was 8.4 µg/mL (≈ 32 µM).

Turning to `O=C(CN1CCN(c2ccc([N+](=O)[O-])cc2Cl)CC1)N1CCOCC1`, the kinetic solubility stood at 54.9 µg/mL (≈ 149 µM).

For `S=C(/N=c1/sccn1Cc1ccccc1)NC1CC1`, the solubility (kinetic) was determined as 5.4 µg/mL (≈ 18.7 µM). This solubility kinetic lies about 10-fold lower than the previous one.

Take `O=c1cc(-c2ccccc2)nc(Sc2ccc([N+](=O)[O-])cc2[N+](=O)[O-])[nH]1`: the solubility (kinetic) is 3.3 µg/mL (≈ 8.91 µM). Compared with the last compound, the solubility kinetic is about 1.6-fold lower.

As for `CC(C)(C)Nc1ncnc2sc(-c3ccccc3)cc12`, the kinetic solubility was less than 0.2 µg/mL.

Regarding `CNC(=S)N1CCN(c2nc3ccccc3s2)CC1`, the solubility (kinetic) amounted to 4 µg/mL (≈ 13.7 µM).

`COc1cccc(OC)c1C(=O)NC(C)CCc1ccccc1` (stereo unspecified) returned a solubility (kinetic) of 44.2 µg/mL (≈ 141 µM).

In turn, `COc1ccccc1OCCCn1cc(C(C)=O)c2ccccc21` came in with a kinetic solubility of 25.8 µg/mL (≈ 79.8 µM).

`CCN1CCN(S(=O)(=O)c2c(C)cc(C)cc2C)CC1` showed a kinetic solubility greater than 44.5 µg/mL.

As for `COc1ccc2cc(C(=O)NCc3ccccc3)c(=O)oc2c1`, the solubility (kinetic) was less than 0.7 µg/mL.

`O=C(NCc1ccc(F)cc1)Nc1cccc([N+](=O)[O-])c1` yielded a kinetic solubility of 1 µg/mL (≈ 3.46 µM).

The compound `COc1ccc(CNC(=O)CSC(=S)N2CCCC2)cc1` yielded a solubility (kinetic) of 16.2 µg/mL (≈ 49.9 µM).

In turn, `O=C(Nc1ccccc1F)c1ccc(-c2cccc([N+](=O)[O-])c2)o1` yielded a kinetic solubility of 2 µg/mL (≈ 6.13 µM). This solubility kinetic lies about 8.1-fold lower than the previous one.

Compound `CCOC(=O)Cn1nc(C)n(-c2c(C)cccc2C)c1=O` had a solubility (kinetic) greater than 43.4 µg/mL.

As to `Cc1cc[n+](-c2ccccc2)c2ccccc12.[Cl-]`, the solubility (kinetic) came to 17.3 µg/mL.

With `NS(=O)(=O)c1cccc(NC(=O)c2cccc(N3C(=O)c4ccccc4C3=O)c2)c1`, the kinetic solubility turned out to be 12.2 µg/mL (≈ 28.9 µM).

`COC(=O)CNC(=O)C(NC(=O)OCc1ccccc1)C(C)C` (stereo unspecified) (Cbz-[ξV]-Gly-OMe) showed a kinetic solubility greater than 48.4 µg/mL.

As to `Cc1nc(=S)c2c([nH]1)-c1ccccc1CC21CCCCC1`, the solubility (kinetic) was 0.3 µg/mL (≈ 1.01 µM).

`CCN(CC)C(=O)C(C)N(C#N)c1nc(Cl)nc(N(C)C)n1` (stereo unspecified) registered a solubility (kinetic) greater than 48.9 µg/mL.

The compound `O=C(CN1C(=O)NC2(CCCCC2)C1=O)NCCc1ccccc1` came in with a kinetic solubility greater than 49.4 µg/mL.

For the compound `O=C(COC(=O)c1cccs1)NC1CCCC1`, the kinetic solubility was 36.5 µg/mL (≈ 144 µM).

The compound `COc1ccc(-c2cc(C(=O)N3CCOCC3)no2)cc1` had a kinetic solubility greater than 43.2 µg/mL.

In the case of `CCc1cnccc1CCC(=O)Nc1ccccc1C`, the kinetic solubility worked out at 35.4 µg/mL (≈ 132 µM).

With `COc1ccc(NC(=O)CC2CC3CCC2C3)cc1S(=O)(=O)N1CCOCC1` (stereo unspecified), the kinetic solubility is greater than 61.3 µg/mL.

`NC(=O)COC(=O)c1sc2cc(F)ccc2c1Cl`: the solubility (kinetic) stood at 6.3 µg/mL (≈ 21.9 µM).

`O=C(c1ccco1)c1cn(CC(=O)N2CCCCCC2)c2ccccc12`: the kinetic solubility is 1.4 µg/mL (≈ 4 µM).

For the compound `CC(=O)NCc1cc(-c2ccc(Cl)cc2)no1`, the solubility (kinetic) was found to be 37.2 µg/mL (≈ 148 µM).

`Nc1c(C(=O)[O-])sc2nc3c(cc12)CCCC3` displayed a kinetic solubility of 23.2 µg/mL.

For the compound `CC(=NCC1CCCO1)c1c(O)n(-c2ccccc2C)c(=O)[nH]c1=O` (stereo unspecified), the solubility (kinetic) is greater than 51.5 µg/mL.

`CCCn1cnc2scc(-c3ccc(C)c(C)c3)c2c1=O` had a solubility (kinetic) of 1.1 µg/mL (≈ 3.69 µM).

Consider `N#Cc1c(-c2ccccc2)oc(=O)c2ccccc12`, for which the solubility (kinetic) turned out to be 1.2 µg/mL (≈ 4.85 µM).

Consider `Cc1cc(C)nc(N2CCCC(C(=O)NC(C)C)C2)n1` (stereo unspecified), for which the kinetic solubility amounted to 41.1 µg/mL (≈ 149 µM).

`CC(=O)Nc1ccc(NS(=O)(=O)c2ccc(C)cc2)c([N+](=O)[O-])c1`: the kinetic solubility was greater than 52.4 µg/mL.

`CN1CCN(C(=O)c2ccc(-c3cccs3)s2)CC1`: the solubility (kinetic) is greater than 43.9 µg/mL.

`CN(C)/C=C1/OC(=O)C(C#N)=C1c1ccc(Cl)cc1`: the solubility (kinetic) amounted to 2.4 µg/mL (≈ 8.74 µM).

In turn, `CCOC(=O)c1cc(NCc2cccs2)ccc1N1CCOCC1` returned a solubility (kinetic) of 50.4 µg/mL (≈ 145 µM).

Regarding `COc1ccc(NC(=O)NCCCCc2ccccc2)cc1`, the kinetic solubility was found to be 2.1 µg/mL (≈ 7.04 µM).

As for `CC1CCCC(NC(=O)COC(=O)[C@@H](NC(=O)c2ccc(F)cc2)C(C)C)C1C` (stereo partly specified), the solubility (kinetic) stood at 8.7 µg/mL (≈ 21.4 µM).

Compound `COc1ccccc1CN1CCNC(=O)C1CC(=O)O` (stereo unspecified) had a solubility (kinetic) greater than 41.7 µg/mL.

Regarding `COc1ccccc1-n1cc(-c2ccc([N+](=O)[O-])cc2)[nH]c1=S`, the kinetic solubility is 0.3 µg/mL (≈ 0.916 µM).

For `Cc1ccc(S(=O)(=O)N(C)C)cc1NC(=O)CN1CCCC1`, the solubility (kinetic) was greater than 48.8 µg/mL.

The compound `CN(C)C=NC(=O)c1[nH]c2ccc(Cl)cc2c1-c1ccccc1` came in with a solubility (kinetic) of 15.2 µg/mL (≈ 46.7 µM).

In the case of `CCOC(=O)c1[nH]c(C=O)c(C(=O)OCC)c1C`, the kinetic solubility is 20.7 µg/mL (≈ 81.7 µM).

Turning to `O=C(OCC(=O)N1CCCC1=O)c1cc2ccccc2o1`, the solubility (kinetic) was greater than 43.1 µg/mL.
